Assay results taken from patent US7005443B1, “5-Hydroxy indazole derivatives for treating glaucoma” (priority 2000, dated 2006).
Read-outs that look alike come from different tables or passages of the source.

How the values were obtained:
5HT2 receptor = target: T1, 5HT2 receptor (Rattus norvegicus, UniProt P14842); assay: 5HT2 Functional Assay: Phosphoinositide (PI) turnover assay; assay type: cell-based; details: for Emax: A7R5, read-out: Efficacy (Emax, %)
T1 construct: A7r5 rat vascular smooth muscle cells; endogenous in cells; host or cells: A7r5 rat vascular smooth muscle cells
T1 sequence (P14842 whole entry): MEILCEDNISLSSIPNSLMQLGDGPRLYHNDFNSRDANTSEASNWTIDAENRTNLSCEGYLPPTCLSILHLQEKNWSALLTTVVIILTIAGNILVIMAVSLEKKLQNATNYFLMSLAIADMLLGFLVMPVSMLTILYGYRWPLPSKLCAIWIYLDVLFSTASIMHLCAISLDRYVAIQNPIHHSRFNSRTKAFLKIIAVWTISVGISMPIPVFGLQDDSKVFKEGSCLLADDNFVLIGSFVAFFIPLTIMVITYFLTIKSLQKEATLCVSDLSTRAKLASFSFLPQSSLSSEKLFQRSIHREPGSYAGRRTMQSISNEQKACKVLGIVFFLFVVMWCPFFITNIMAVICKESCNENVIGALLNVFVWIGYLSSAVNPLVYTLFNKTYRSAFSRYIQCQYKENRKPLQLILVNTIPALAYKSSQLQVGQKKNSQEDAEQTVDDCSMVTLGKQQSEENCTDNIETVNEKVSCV
Experimental: 5HT2 Functional Assay: Phosphoinositide (PI) turnover assay
The relative agonist activity of serotonergic compounds at the 5HT2 receptor can be determined in vitro using the ability of the compounds to stimulate the production of [^3H]inositol phosphates in [^3H]myo-inositol-labeled A7r5 rat vascular smooth muscle cells by their ability to activate the enzyme phospholipase C. These cells are grown in culture plates, maintained in a humidified atmosphere of 5% CO2 and 95% air and fed semi-weekly with Dulbecco's modified Eagle medium (DMEM) containing 4.5 g/l glucose and supplemented with 2 mM glutamine, 10 μg/ml gentamicin, and 10% fetal bovine serum. For the purpose of conducting the phosphoinositide (PI) turnover experiments, the A7r5 cells are cultured in 24-well plates as previously [J. Pharmacol. Expt. Ther., 286, 411 (1998)]. Confluent cells are exposed for 24–30 hrs to 1.5 μCi [^3H]-myo-inositol (18.3 Ci/mmol) in 0.5 ml of serum-free medium. Cells are then rinsed once with DMEM/F-12 containing 10 mM LiCl prior to incubation with the test agent (or solvent as the control) in 1.0 ml of the same medium for 1 hr at 37° C., after which the medium is aspirated and 1 ml of cold 0.1 M formic acid added to stop the reaction. The chromatographic separation of [^3H]-inositol phosphates ([^3H]-IPs) on an AG- 1-X8 column is performed as previously described [J. Pharmacol. Expt. Ther. 286, 411 (1998)] with sequential washes with H2O and 50 mM ammonium formate, followed by elution of the total [^3H]-IPs fraction with 1.2 M ammonium formate containing 0.1 M formic acid. The eluate (4 ml) is collected, mixed with 15 ml scintillation fluid, and the total [3H]-IPs determined by scintillation counting on a beta-counter. Concentration-response data are analyzed by the sigmoidal fit function of the Origin Scientific Graphics software (Microcal Software, Northampton, Mass.) to determine agonist potency (EC50 value) and efficacy (Emax). Serotonin (5HT) is used as a positive control (standard) agonist compound and the efficacy of test compounds is compared to that of 5HT (set at 100%). The concentration of the compound needed to stimulate the production of […] by 50% of the maximum response is termed the EC50 value.

Compound	melting point [°C]	EC50 (5HT2 receptor) [nM]	Emax (5HT2 receptor) [%]	EC50 (5HT2 receptor; [3H]inositol phosphate production in A7r5 rat vascular smooth muscle cells, read-out: EC50) [nM]
CC(N)Cc1nn(C)c2ccc(O)cc12.O=C(O)/C=C/C(=O)O (stereo not drawn) [3-(2-Aminopropyl)-1-methyl-1H-indazol-5-ol fumarate]	136 to 139	778	98	–
CC(N)Cc1n[nH]c2ccc(O)cc12.Cl (stereo not drawn) [3-(2-Aminopropyl)-1H-indazol-5-ol hydrochloride]	227 to 230	–	97	1210
